Values belong to the molecule of their own block, whether it stands above or below them.
Columns and labels:
[1] = system: small pulmonary arteries in mouse precision-cut lung slices; assay: Relaxation of pre-constricted small pulmonary arteries in mouse precision-cut lung slices; type: cell-based; details: for maximal relaxation: % relaxation of pre-constriction to 100 nM 5-HT; for EC50: Mus musculus, pre-constricted with 100 nM 5-HT
Description: Precision cut lung slices were prepared using a modification of previously reported procedures (see e.g., Jiang et al., 2010, J. Pharmacol. Exp. Ther. 334:703-709) and based on the method described by Perez-Joghbi and Sanderson (see e.g., Perez-Joghbi, J. F. and Sanderson, M. J., Am. J. Physiol., 2007, 293:L1000-L1011). Mice were euthanized with CO2, a 2 cm long incision was made in the midline of the neck above the trachea and the trachea was isolated from surrounding tissue. The trachea was cut open and cannulated with PE 90 plastic tubing. A solution of 2% low melting point agarose (Sigma-Aldrich, St. Louis Mo.) in Hanks Buffered Salt solution (HBSS) was prepared at 37° C. Lungs were inflated by injecting 1.2 ml of 2% agarose followed by 0.2 ml of air through the tracheal cannula. The chest was then opened along the midline and the heart was exposed. A solution of 6% gelatin (Sigma-Aldrich, St. Louis Mo.) was prepared in HBSS and 0.4 mL was injected into the right ventricle using a 1 mL syringe and 26 gauge needle, to fill the pulmonary arteries with gelatin. The mouse was cooled to 4° C. for 15 min to harden the agarose and gelatin to stiffen the lung for sectioning. The individual lung lobes were then isolated, glued to a platform and sliced perpendicular to the long axis of the lung. 150 μm thick slices were prepared in ice cold HBSS using an EMS-4000 tissue slicer (Electron Microscopy Sciences, Fort Wash. Pa.). The slices were maintained in sterile, serum-free Dulbecco's modified Eagle's medium (DMEM, Gibco, Grand Island, N.Y.) containing penicillin (100 U/mL, Cellgro, Manassas, Va.), streptomycin (100 μg/mL, Cellgro, Manassas, Va.) and amphotericin B (1.5 μg/mL, Cellgro, Manassas, Va.) at 37° C. and 5% CO2+95% air in a humidified incubator for not more than 3 days.
The method used to measure constriction and relaxation of pulmonary arteries in lung slices is a modification of a method previously described that was used to measure constriction and relaxation of mouse airways (see e.g., Jiang et al., 2010 J. Pharmacol. Exp. Ther. 334:703-709). Lung slices were placed on glass coverslips in a 1 mL volume incubation chamber and held in place with nylon mesh (Small Parts Inc, Miami Lakes, Fla.). The chamber was placed on the stage of a Nikon (Melville, N.Y.) TE200 inverted microscope at room temperature and slices incubated in HBSS containing 10 mM HEPES buffer. Pulmonary arteries in lung slices were imaged using a 20× objective and images recorded using a CoolSNAP HQ2 digital camera (Photometrics, Tucson Ariz.). Images in the absence and the presence of the vasoconstrictor 5-HT (Sigma-Aldrich, St. Louis, Mo.) and the vasorelaxants pirfenidone (Sigma-Aldrich, St. Louis Mo.) and CXN-8, CXN-9 and CXN-16 were collected and vasoconstriction and vasorelaxation was calculated by pixel summing of the cross-sectional area of the pulmonary artery lumen before and after addition of the test agent, using ImageJ software (http://imagej.nih.gov). A decrease in cross-sectional area was defined as vasoconstriction while an increase in cross-sectional area was defined as vasorelaxation, as shown in FIGS. 1A-1B.
First, small pulmonary arteries were pre-constricted in mouse precision-cut lung slices with 100 nM 5-HT, a concentration that causes submaximal constriction of pulmonary arteries, as shown in FIG. 1A.

[2] = system: mouse isolated extralobar pulmonary arteries; assay: Relaxation of pre-constricted mouse isolated extralobar pulmonary artery rings (isometric tension); type: cell-based; details: for EC50: Mus musculus; for relaxation: 1 μM
Text: Mouse extralobar pulmonary arteries were isolated and prepared using a modification of a previously reported procedure (see e.g., Bockman et al., 1996, J. Pharmacol. Exp. Ther. 278:1235-1243). Mice were euthanized with CO2, the chest was opened, and the heart and lung combined were isolated from surrounding tissue. The main pulmonary artery was isolated from its origin at the right ventricle, past its bifurcation into the right and left pulmonary arteries. The artery segment was removed and placed in Krebs solution (composition in mM: NaCl 126, KCl 5.5, CaCl2 2.5, NaH2PO4 1.2, MgCl2 1.2, NaHCO3 25, dextrose 11.1, Na2Ca EDTA 0.029) equilibrated with 95%02-5% CO2 (pH 7.4). The pulmonary artery segment was cleaned of connective tissue and the main pulmonary artery and its right and left branches were cut into 2 mm long rings. The rings were mounted using 2 stainless steel pins (0.1 mm in diameter) passed through the artery lumen. One pin was attached to a Kent isometric force transducer (Kent Scientific Corp, Torrington Conn.) for measurement of isometric tension while the second pin was held in a fixed position. This allowed for measurement of contraction and relaxation of the ring in the circular direction. Mounted rings were placed in 10 mL of Krebs solution in glass muscle chambers (Radnoti, Monrovia, Calif.) gassed with 95% 02-5% CO2, and maintained at 37° C. Rings were washed with Krebs solution and equilibrated for 90-120 min at a passive resting tension of 150 mg before experiments with test agents were started.
Mouse isolated extralobar pulmonary arteries were pre-constricted with 250 nM 5-HT, a concentration that causes submaximal constriction, as shown in FIG. 2A. Cumulative addition of pirfenidone and CXN-8 caused a concentration-dependent relaxation of mouse pulmonary arteries with a maximal relaxation of 84.9±3.4% and 76.7±7.0%, respectively, as shown in FIG. 2B.
The endothelium was removed from pulmonary arteries by inserting a small (200 μm diameter) wire into the inside lumen of the arteries and gently rubbing the internal surface. To test for the presence of functional endothelium, rings with and without rubbing were contracted with 250 nM 5-HT followed by relaxation using 1 μM of the endothelium dependent vasorelaxant acetylcholine. Rings that relaxed by 5% or less were considered as lacking the endothelium. Rings with and without endothelium were used to test the relaxant effects of CXN-8.
The synthesis of NO is mediated by a family of NO synthase enzymes. It is well accepted that acetylcholine induces relaxation of pulmonary arteries via endothelium-dependent NO production. Nitric oxide production was inhibited in pulmonary arteries by 30 min incubation with the nitric oxide synthesis inhibitor nitro-L-arginine methyl ester (L-NAME, 100 μM). To test for nitric oxide synthase inhibition by L-NAME, rings were contracted with 250 nM 5-HT followed by relaxation using 1 μM of the nitric oxide dependent vasorelaxant acetylcholine. The relaxant effects of CXN-8 were then tested in rings in the absence (with nitric oxide) and the presence (without nitric oxide) of L-NAME.

[3] = system: eNOS−/− mice; assay: Right ventricular systolic pressure (RVSP) in eNOS-knockout mice, acute intravenous CXN-8; type: in vivo, mouse; details: 4.6 mg/kg i.v. via femoral vein, baseline 40.7±7.6 mmHg
Description: (§1) Mice (20-25 g) were anesthetized via an intraperitoneal (i.p.) injection of a combination of xylazine (10 mg/kg body weight) and ketamine (100 mg/kg body weight). One-half dose was given as supplemental anesthesia as needed. Animals were placed on a heating pad set to maintain body temperature at approximately 37° C. The neck and upper chest area were cleaned with 70% isopropyl alcohol and a 2 cm long incision was made anterior to the manubrium on the right side and above the jugular fossa. The jugular fossa was identified and the external jugular vein was isolated from surrounding tissue. The anterior projection of the jugular vein was tied off with 8-0 silk suture and a 1 mm incision was made in the jugular vein. A 1 French Mikro-Tip pressure catheter (Millar Inc, Houston, Tex.) catheter was inserted into the jugular vein and advanced through the right atrium into the right ventricle to measure ventricular systolic pressure of mice via a pressure transducer using PowerLab monitoring hardware and software (AD Instruments, Colorado Springs, Colo., USA). The pressure catheter was secured in place using an 8-0 silk suture tied around the catheterized jugular vein. […]
(§2) CXN-8 was administered intravenously in a dose-escalation manner in 15 minute intervals from doses of 0.14 mg/kg to 4.6 mg/kg. Hemodynamic indices, including heart rate (HR) and RVSP were measured. […]

[4] = system: RGS2−/− mice; assay: RVSP in RGS2 knockout mice, acute intravenous CXN-8; type: in vivo, mouse; details: RGS2 KO mice, 4.6 mg/kg i.v. via femoral vein; baseline 36.7±1.9 mmHg
Description: as §1, §2

[5] = system: hypoxic mice (C57BL/6); assay: RVSP in chronic hypoxia model of PH in mice, acute intravenous CXN-8; type: in vivo, mouse; details: 1.4 mg/kg i.v. via femoral vein, baseline 56.4±1.0 mmHg
Description: as §1, §2

[6] = system: mouse isolated extralobar pulmonary arteries; assay: Relaxation of pre-constricted mouse isolated extralobar pulmonary artery rings (isometric tension); type: cell-based; details: for EC50: Mus musculus
[7] = 250 nM 5-HT, pre-treatment with L-NAME (100 μM)
[8] = endothelium-denuded arteries, 250 nM 5-HT
[9] = intact rings pre-constricted with 250 nM 5-HT

EC50 [1]: 0.0056 µM | EC50 ([2]; 250 nM 5-HT, absence of L-NAME): 0.0056 µM | EC50 [2, 7]: 0.0099 µM | EC50 [2, 8]: 0.0109 µM | EC50 [2, 9]: 0.0052 µM | EC50 ([6]; ET-1 pre-contracted arteries): 0.0217 µM | EC50 ([6]; U46619 pre-contracted arteries): 0.0403 µM
SMILES: Cc1ccc(=O)n(-c2ccc(OCCCN3CCCCC3)cc2)c1 [CXN-8, 5-methyl-1-(4-(3-(piperidin-1-yl)propoxy)phenyl)pyridin-2(1H)-one]
maximal relaxation [1]: 77.1±9.6% | maximal relaxation ([2]; 250 nM 5-HT, absence of L-NAME): 74.5±7.4% | maximal relaxation [2, 7]: 45.5±6.2% | maximal relaxation [2, 8]: 47.2±2.9% | maximal relaxation [2, 9]: 76.7±7.0% | RVSP after treatment [3]: 29.3±1.5 mmHg | RVSP after treatment [4]: 19.6±0.9 mmHg | RVSP after treatment [5]: 37.4±1.7 mmHg | maximal relaxation ([6]; U46619 (20 nM) pre-contracted arteries): 70.6±7.1% | maximal relaxation ([6]; endothelin 1 (ET-1, 10 nM) pre-contracted arteries): 86.6±4.1%

SMILES: Cc1ccc(=O)n(-c2ccc(OCCCCN3CCCCC3)cc2)c1 [CXN-9, 5-methyl-1-(4-(4-(piperidin-1-yl)butoxy)phenyl)pyridin-2(1H)-one]
EC50 [1]: 0.0698 µM

SMILES: Cc1ccc(=O)n(-c2ccc(OCCCCN(C)C)cc2)c1 [CXN-16, 1-(4-(4-(dimethylamino)butoxy)phenyl)-5-methylpyridin-2(1H)-one]
EC50 ([1]; unit inferred): 1.7 µM

SMILES: CC(=O)OCC[N+](C)(C)C [acetylcholine, reference compound]
relaxation ([2]; 250 nM 5-HT-pre-contracted endothelium-denuded arteries): 5% | relaxation ([2]; 250 nM 5-HT-pre-contracted endothelium-intact arteries): 42%

EC50 ([1]; cumulative addition): 14.3 µM | EC50 [2, 9]: 94 µM
SMILES: Cc1ccc(=O)n(-c2ccccc2)c1 [pirfenidone, 5-methyl-1-phenylpyridin-2(1H)-one, reference compound]
maximal relaxation [1]: 81.2±4.8% | maximal relaxation [2, 9]: 84.9±3.4%
